US4207320A, “Amino-substituted imidazo[1,2-a:3,4-a']diquinolin-15-ium salts compositions and method of use” (Warner-Lambert Company, priority 1978, dated 1980)

Legend:
[1] = system: C. guilliermondi; experiment: Broth Tube Dilution Test, minimal inhibitory concentration; assay type: cell-based, Candida gulliermondi; settings: Candida, 28° C., at 72
Method: (§1) Minimal Inhibitory Concentration (MIC) The test compounds are serially diluted in pure dimethylformamide, giving a concentration of 4000, 800, 160 and 32 micrograms/milliliters(μg./ml.).A further dilution (typically a 2-fold or a 5-fold dilution) is made from each of the above serial dilutions into tubes containing 9.4 ml. BactoSabouraud Dextrose Broth, resulting in a set of broth tubes with specific final drug concentrations for which activity is to be determined. Each of the broth tubes is then inoculated with 0.5 ml. of a stock suspension of the same test organism. After inoculation, all of the tubes are incubated at 28° C. The tubes are read 48 hours to 7 days post inoculation, depending on the organism being tested. The lowest concentration of test compound at which growth of the organism is prevented in the broth tubes is taken as the minimal inhibitory concentration (MIC). The Broth+Serum Dilution Test is performed in the same manner as the Broth Tube Dilution Test except that the liquid medium consists of 50% BactoSabouraud Dextrose Broth and 50% normal calf serum from citrated blood.

[2] = system: C. guilliermondi; experiment: Broth Tube Dilution Test, minimal fungicidal concentration; assay type: cell-based, Candida gulliermondi; settings: Candida, 28° C., 24 hours later
Method: as §1, with “The” for “Minimal Inhibitory Concentration (MIC) The”, “blood. […] The tubes are then read and the lowest concentration of test compound for which there is no growth of the organism in the broth tube is taken as the minimal fungicidal concentration (MFC).” for “blood.”

[3] = system: C. krusei; experiment: as above; assay type: cell-based, Candida krusei; settings: Pichia kudriavzevii, 28° C., 24 hours later
Method: as §1, with “The” for “Minimal Inhibitory Concentration (MIC) The”, “blood. […] The tubes are then read and the lowest concentration of test compound for which there is no growth of the organism in the broth tube is taken as the minimal fungicidal concentration (MFC).” for “blood.”

[4] = system: C. parapsilosis; experiment: Broth Tube Dilution Test, minimal inhibitory concentration; assay type: cell-based, Candida parapsilosis; settings: Lodderomyces parapsilosis, 28° C., at 72
Method: as §1

[5] = system: C. albicans; experiment: Broth Tube Dilution Test, minimal fungicidal concentration; assay type: cell-based; settings: Candida albicans, 28° C., 24 hours later
Method: as §1, with “The” for “Minimal Inhibitory Concentration (MIC) The”, “blood. Minimal Fungicidal Concentrations (MFC) For a determination of fungicidal activity, the broth tubes described above are incubated at 28° C. for 48 hours and then serially diluted 1:100 into Bacto-Sabouraud Dextrose Broth and incubated again for 48 hours. The tubes are then read and the lowest concentration of test compound for which there is no growth of the organism in the broth tube is taken as the minimal fungicidal concentration (MFC).” for “blood.”

[6] = system: Geotrichum candidum; experiment: as above; assay type: cell-based; settings: 28° C., 24 hours later
Method: as §1, with “The” for “Minimal Inhibitory Concentration (MIC) The”, “blood. Minimal Fungicidal Concentrations (MFC) For a determination of fungicidal activity, the broth tubes described above are incubated at 28° C. for 48 hours and then serially diluted 1:100 into Bacto-Sabouraud Dextrose Broth and incubated again for 48 hours. The tubes are then read and the lowest concentration of test compound for which there is no growth of the organism in the broth tube is taken as the minimal fungicidal concentration (MFC).” for “blood.”

[7] = system: C. tropicalis; experiment: as above; assay type: cell-based; settings: Candida tropicalis, 28° C., 24 hours later
Method: as §1, with “The” for “Minimal Inhibitory Concentration (MIC) The”, “blood. Minimal Fungicidal Concentrations (MFC) For a determination of fungicidal activity, the broth tubes described above are incubated at 28° C. for 48 hours and then serially diluted 1:100 into Bacto-Sabouraud Dextrose Broth and incubated again for 48 hours. The tubes are then read and the lowest concentration of test compound for which there is no growth of the organism in the broth tube is taken as the minimal fungicidal concentration (MFC).” for “blood.”

[8] = system: C. stellatoidea; experiment: as above; assay type: cell-based; settings: Candida albicans, 28° C., 24 hours later
Method: as §1, with “The” for “Minimal Inhibitory Concentration (MIC) The”, “blood. Minimal Fungicidal Concentrations (MFC) For a determination of fungicidal activity, the broth tubes described above are incubated at 28° C. for 48 hours and then serially diluted 1:100 into Bacto-Sabouraud Dextrose Broth and incubated again for 48 hours. The tubes are then read and the lowest concentration of test compound for which there is no growth of the organism in the broth tube is taken as the minimal fungicidal concentration (MFC).” for “blood.”

[9] = system: C. albicans; experiment: Broth Tube Dilution Test, minimal inhibitory concentration; assay type: cell-based; settings: Candida albicans, 28° C., at 72
Method: as §1

[10] = system: Geotrichum candidum; experiment: as above; assay type: cell-based; settings: 28° C., at 72
Method: as §1

[11] = system: C. tropicalis; experiment: as above; assay type: cell-based; settings: Candida tropicalis, 28° C., at 72
Method: as §1

[12] = system: C. stellatoidea; experiment: as above; assay type: cell-based; settings: Candida albicans, 28° C., at 72
Method: as §1

[13] = system: C. krusei; experiment: as above; assay type: cell-based, Candida krusei; settings: Pichia kudriavzevii, 28° C., at 72
Method: as §1

[14] = system: C. parapsilosis; experiment: Broth Tube Dilution Test, minimal fungicidal concentration; assay type: cell-based, Candida parapsilosis; settings: Lodderomyces parapsilosis, 28° C., 24 hours later
Method: as §1, with “The” for “Minimal Inhibitory Concentration (MIC) The”, “blood. […] The tubes are then read and the lowest concentration of test compound for which there is no growth of the organism in the broth tube is taken as the minimal fungicidal concentration (MFC).” for “blood.”

Row | MIC [1] | MIC [4] | MIC [9] | MIC [10] | MIC [11] | MIC [12] | MIC [13] | SMILES | MFC [2] | MFC [3] | MFC [5] | MFC [6] | MFC [7] | MFC [8] | MFC [14]
1 | 2.5 µg/mL | 10 µg/mL | 10 µg/mL | 10 µg/mL | > 10 µg/mL | 2.61 µg/mL | 10 µg/mL | CC(C)(C)c1ccc2c(ccc3c[n+]4c5ccc(N6CCCC6)cc5ccc4n32)c1.[Cl-] [Example 7, 10-(1,1-Dimethylethyl)-3-(1-pyrrolidinyl)imidazo[1,2-a:3,4-a']diquinolin-15-ium Chloride] | 2.5 µg/mL | 10 µg/mL | 10 µg/mL | > 10 µg/mL | > 10 µg/mL | 5 µg/mL | > 10 µg/mL
2 | 10 µg/mL | 5 µg/mL | 2.5 µg/mL | 5 µg/mL | 10 µg/mL | 1.25 µg/mL | 2.5 µg/mL | CCc1ccc2c(ccc3c[n+]4c5ccc(N6CCCC6)cc5ccc4n32)c1.[Cl-] [Example 26, 10-Ethyl-3-(1-pyrrolidinyl)imidazo[1,2-a: 3,4-a']diquinolin-15-ium chloride] | > 10 µg/mL | 2.5 µg/mL | 2.5 µg/mL | > 10 µg/mL | > 10 µg/mL | 5 µg/mL | > 10 µg/mL
